Measurements: US9512086B2, “Compound for promoting apoptosis of cancer cells and a pharmaceutical composition containing the same and uses thereof” (National Chiao Tung University, priority 2014, dated 2016)

Tests used:
[1] = test system: BFTC905 human bladder cancer cell line; experiment: MTT cell viability, BFTC905 cells; format: cell-based; details: 24 hours, in comparison with Iressa
Method: (§1) The above cell lines were plated in 96-well plates at a density of 1×10^4 cells/well for 16 to 20 hours. […] After drug treatment, the cell lines were washed with phosphate-buffered saline (hereinafter referred to PBS), and were replaced with fresh complete RPMI-1640 medium for 2 days. Thereafter, the medium was replaced and the cells were incubated with 0.5 mg/ml of 3-(4,5-dimethylthiazol-2-yl)-2,5-diphenyltetrazolium bromide reagent (hereinafter referred to MTT, Sigma Chemical Co., St. Louis, Mo.) in complete RPMI-1640 medium for 4 hours. The viable cells converted MTT to formazan that generates a blue-purple color when dissolved in dimethyl sulfoxide (hereinafter referred to DMSO). The intensity of formazan was measured at 565 nm using a plate reader (VERSAmax, Molecular Dynamics, Sunnyvale, Calif.). The relative percentage of cell viability was calculated by dividing the absorbance of treated cells by that of the control in each experiment.

[2] = test system: RKO human rectal cancer cell line; experiment: MTT cell viability, RKO cells; format: cell-based; details: 24 hours, in comparison with Iressa
Method: as §1

A549 cell line = experiment: MTT cell viability, A549 cell line; format: cell-based, human; details: Homo sapiens, A549 cell line, 24 hours, MTT
Method: as §1
(§2) After drug treatment, the cells were washed with PBS and replaced with fresh complete RPMI-1640 medium for 2 days. Thereafter, the medium was replaced and the cells were incubated with 0.5 mg/mL of MTT reagent (Sigma Chemical Co., St. Louis, Mo.) in complete RPMI-1640 medium for 4 hours. The intensity of formazan was measured at 565 nm using a plate reader (VERSAmax, Molecular Dynamics, Sunnyvale, Calif.). The relative percentage of cell viability was calculated by dividing the absorbance of treated cells by that of the control in each experiment.

A549 cells [3] = experiment: Cell growth, cell number by hemocytometer; format: cell-based, human; details: 30 μM for 24 hours, then cultured 2-6 days
Method: The cells were washed with PBS after the treatment. […] The cell number was calculated with hemocytometer.

PARP = experiment: Western blot of cleaved PARP in A549 cells; details: 10-40 μM, 24 hours
Method: (§4) The protease inhibitors including 1 μg/ml aprotinin, 0.5 μg/ml leupeptin, and 100 μg/ml 4-(2-aminoethyl)benzenesulfonyl fluoride were added to the cell suspensions. The lysates were vibrated for 30 minutes at 4° C. and centrifuged at 10,000 rpm for 10 minutes. The protein concentrations were determined by the BCA protein assay kit (Pierce, Rockford, Ill.). […] The membranes were blocked overnight at 4° C. using blocking buffer (5% non-fat dried milk in solution containing 50 mM Tris/HCl (pH 8.0), 2 mM CaCl2, 80 mM NaCl, 0.05% Tween 20 and 0.02% sodium azide). The membranes were sequentially hybridized with primary antibody and followed with a horseradish peroxidase-conjugated secondary antibody. The protein bands were visualized on the X-ray film using the enhanced chemiluminescence detection system (PerkinElmer Life and Analytical Sciences, Boston, Mass.). […] To verify equal protein loading and transfer, actin was used as the protein loading control. The gel digitizing software, Un-Scan-It gel (Ver. 5.1, Silk Scientific, Inc., Orem, Utah), was used to analyze the intensity of protein bands on X-ray film.
(§5) A549 cells were plated at a density of 1×10^6 cells per 60-mm Petri dish in complete medium for 16 to 20 hours. […] To verify equal protein loading and transfer, actin was used as the protein loading control.

[4] = target: T1, RET (product of ret proto-oncogene) (Homo sapiens, UniProt P07949); experiment: KinaseProfiler assay, RET; format: biochemical; details: read-out: KAR value (kinase activity remaining)
T1 construct: purchased Merck Millipore (KinaseProfiler service)
Text: (§3) The kinase activity remaining (KAR) value is […] related to kinase activity. […]

A549 cells [5] = experiment: Annexin V-PI apoptosis analysis by flow cytometry; format: cell-based, human; details: 10-40 μM for 24 hours
Method: The Annexin V-PI staining kit (BioVision, Mountain View, Calif.) was used to exam the cells by incubating with fluorescent isothiocyanate (FITC)-conjugated-Annexin V and PI according to the manufacturer's instruction. […] The cells were cultured in 60-mm Petri dish at a density of 7×10^5 cells for 16 to 20 hours. […] The cells were trypsinized and collected by centrifugation at 1500 rpm for 5 minutes. Thereafter, the cells were incubated with 500 μl Annexin V-PI labeling solution (containing 5 μl Annexin V-FITC and 5 μl PI in PBS) at room temperature in the dark for 5 minutes. To avoid cell aggregation, the cell solutions were filtered through a nylon mesh membrane (Becton-Dickinson, San Jose, Calif.). Finally, the samples were analyzed immediately using flow cytometer (FACS Calibur, BD Biosciences, Heidelberg, Germany). The percentage of Annexin V-PI staining cells was quantified from a minimum of 10,000 cells by CellQuest software (BD Biosciences).

caspase 3 = experiment: Western blot of active caspase 3 in A549 cells; details: 10-40 μM, 24 hours
Method: as §4, §5

[6] = target: T2, MAPK14 (stress-activated protein kinase-2a) (Homo sapiens, UniProt Q16539); experiment: KinaseProfiler assay, MAPK14; format: biochemical; details: read-out: KAR value (kinase activity remaining)
T2 construct: purchased Merck Millipore (KinaseProfiler service)
Text: as §3

[7] = target: T3, LIMK1 (LIM motif-containing protein kinase-1) (Homo sapiens, UniProt P53667); experiment: KinaseProfiler assay, LIMK1; format: biochemical; details: read-out: KAR value (kinase activity remaining)
T3 construct: purchased Merck Millipore (KinaseProfiler service)
Text: as §3

[8] = target: T4, STK10 (lymphocyte-oriented kinase) (Homo sapiens, UniProt O94804); experiment: KinaseProfiler assay, STK10; format: biochemical; details: read-out: KAR value (kinase activity remaining)
T4 construct: purchased Merck Millipore (KinaseProfiler service)
Text: as §3

[9] = target: T5, CSNK2A1 (casein kinase-2) (Homo sapiens, UniProt P68400); experiment: KinaseProfiler assay, CSNK2A1; format: biochemical; details: read-out: KAR value (kinase activity remaining)
T5 construct: purchased Merck Millipore (KinaseProfiler service)
Text: as §3

[10] = MTT cell viability, HFL1 normal lung fibroblasts; format: cell-based; details: human, HFL1 normal lung fibroblast cells, 0 to 40 μM
Method: as §2

[11] = target: T6, SYK (splenic tyrosine kinase) (Homo sapiens, UniProt P43405); experiment: KinaseProfiler assay, SYK; format: biochemical; details: read-out: KAR value (kinase activity remaining)
T6 construct: purchased Merck Millipore (KinaseProfiler service)
Text: as §3

[12] = target: T7, FGFR1 (fibroblast growth factor receptor-1) (Homo sapiens, UniProt P11362); experiment: KinaseProfiler assay, FGFR1; format: biochemical; details: read-out: KAR value (kinase activity remaining)
T7 construct: purchased Merck Millipore (KinaseProfiler service)
Text: as §3

survivin [13] = experiment: Western blot of survivin protein expression in A549 cells; details: 0 to 40 μM, 24 hours
Method: as §4, §5

MARK2 (PAR-1Ba) = target: T8, MARK2 (PAR-1Ba) (Homo sapiens, UniProt Q7KZI7); experiment: KinaseProfiler assay, MARK2; format: biochemical; details: read-out: KAR value (kinase activity remaining)
T8 construct: purchased Merck Millipore (KinaseProfiler service)
Text: as §3

survivin [14] = experiment: RT-PCR of survivin gene expression in A549 cells; format: cell-based, human; details: 0 to 40 μM, 24 hours
Method: After the treatment, total cellular RNA was purified by ZR RNA MiniPrep™ (Zymo Research, Irvine, Calif.) according to the manufacturer's protocol. RNA concentrations were determined by spectrophotometry. cDNAs were synthesized by SuperScript™ III reverse transcriptase with oligo (dT)12-18 primer (Invitrogen). Each reverse transcript was amplified with GAPDH as an internal control. Reverse transcription polymerase chain reaction (RT-PCR) was performed by a DNA thermal cycler (Mastercycler gradient, Hamburg, Germany). […] The conditions of RT-PCR are stated as followed: the initial denaturation was performed at 94° C. for 2 minutes, followed by 30 cycles at 94° C. for 30 seconds, 56° C. for 30 seconds, and 72° C. for 40 seconds; and 72° C. for 5 minutes. The PCR products were visualized on 1.2% agarose gels with ethidium bromide staining under UV transillumination, and photograph was taken by a camera DH27-S3 (Medclub, Taoyuan, Taiwan).

[15] = target: T9, MKNK2 (MAPK-interacting kinase-2) (Homo sapiens, UniProt Q9HBH9); experiment: KinaseProfiler assay, MKNK2; format: biochemical; details: read-out: KAR value (kinase activity remaining)
T9 construct: purchased Merck Millipore (KinaseProfiler service)
Text: as §3

A549 cells [16] = experiment: Cell cycle analysis, PI staining and flow cytometry; format: cell-based, human; details: 40 μM, 24 hours, 60.5% before treatment
Method: After the treatment, the cells were collected and fixed with ice-cold 70% ethanol overnight at −20° C. After centrifugation at 1500 rpm for 5 minutes, the pellets were treated with 4 μg/ml PI solution containing 1% Triton X-100 and 50 μg/ml RNase at 37 °C for 30 minutes in the dark. To avoid cell aggregation, the cell solutions were filtrated through nylon membrane (Becton-Dickinson, San Jose, Calif.). Subsequently, the samples were analyzed by flow cytometry. For each measurement, 10,000 cells were analyzed for DNA content. The percentage of cell cycle phases was quantified by ModFit LT software (Ver. 2.0, Becton-Dickinson).

T1 sequence (P07949 29-1114): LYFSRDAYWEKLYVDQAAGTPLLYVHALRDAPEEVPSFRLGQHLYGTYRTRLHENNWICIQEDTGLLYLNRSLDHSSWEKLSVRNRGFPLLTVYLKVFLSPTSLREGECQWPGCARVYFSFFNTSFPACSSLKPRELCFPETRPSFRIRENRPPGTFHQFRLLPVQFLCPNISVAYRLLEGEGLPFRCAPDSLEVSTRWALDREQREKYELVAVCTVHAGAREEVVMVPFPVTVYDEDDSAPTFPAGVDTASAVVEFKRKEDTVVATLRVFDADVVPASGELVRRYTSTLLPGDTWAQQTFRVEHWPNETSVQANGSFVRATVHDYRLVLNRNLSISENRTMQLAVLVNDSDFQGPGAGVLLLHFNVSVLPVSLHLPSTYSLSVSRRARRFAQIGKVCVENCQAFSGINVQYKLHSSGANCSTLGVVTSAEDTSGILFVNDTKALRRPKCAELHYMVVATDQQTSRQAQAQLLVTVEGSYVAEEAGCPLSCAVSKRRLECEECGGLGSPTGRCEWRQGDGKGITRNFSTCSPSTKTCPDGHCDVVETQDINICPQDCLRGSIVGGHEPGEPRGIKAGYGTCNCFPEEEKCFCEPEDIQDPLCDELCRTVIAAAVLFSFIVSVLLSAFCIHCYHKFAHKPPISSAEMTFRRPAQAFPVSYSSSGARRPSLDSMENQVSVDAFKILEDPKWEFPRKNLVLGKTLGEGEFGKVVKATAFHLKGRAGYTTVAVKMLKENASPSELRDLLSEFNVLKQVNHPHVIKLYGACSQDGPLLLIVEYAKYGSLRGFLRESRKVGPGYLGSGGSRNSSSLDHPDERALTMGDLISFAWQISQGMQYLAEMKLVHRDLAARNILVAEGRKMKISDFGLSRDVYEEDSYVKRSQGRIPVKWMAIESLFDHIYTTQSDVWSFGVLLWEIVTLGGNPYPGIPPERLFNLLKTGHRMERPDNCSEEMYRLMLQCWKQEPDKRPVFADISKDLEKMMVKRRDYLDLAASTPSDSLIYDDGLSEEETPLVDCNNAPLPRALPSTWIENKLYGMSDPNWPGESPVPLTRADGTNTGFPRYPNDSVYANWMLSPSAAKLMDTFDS
T9 sequence (Q9HBH9 whole entry): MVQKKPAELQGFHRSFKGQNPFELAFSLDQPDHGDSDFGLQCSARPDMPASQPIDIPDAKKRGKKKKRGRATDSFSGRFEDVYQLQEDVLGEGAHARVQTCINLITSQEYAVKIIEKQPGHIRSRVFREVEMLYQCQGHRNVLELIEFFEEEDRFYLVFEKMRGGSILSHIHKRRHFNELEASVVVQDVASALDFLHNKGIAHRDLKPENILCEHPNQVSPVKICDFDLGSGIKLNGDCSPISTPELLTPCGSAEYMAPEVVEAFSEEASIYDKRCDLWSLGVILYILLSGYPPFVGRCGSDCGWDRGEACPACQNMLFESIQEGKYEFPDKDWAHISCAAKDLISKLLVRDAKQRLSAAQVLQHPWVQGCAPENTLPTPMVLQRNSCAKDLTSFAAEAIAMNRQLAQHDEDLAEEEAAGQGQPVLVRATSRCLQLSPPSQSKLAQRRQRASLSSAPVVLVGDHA
T4 sequence (O94804 whole entry): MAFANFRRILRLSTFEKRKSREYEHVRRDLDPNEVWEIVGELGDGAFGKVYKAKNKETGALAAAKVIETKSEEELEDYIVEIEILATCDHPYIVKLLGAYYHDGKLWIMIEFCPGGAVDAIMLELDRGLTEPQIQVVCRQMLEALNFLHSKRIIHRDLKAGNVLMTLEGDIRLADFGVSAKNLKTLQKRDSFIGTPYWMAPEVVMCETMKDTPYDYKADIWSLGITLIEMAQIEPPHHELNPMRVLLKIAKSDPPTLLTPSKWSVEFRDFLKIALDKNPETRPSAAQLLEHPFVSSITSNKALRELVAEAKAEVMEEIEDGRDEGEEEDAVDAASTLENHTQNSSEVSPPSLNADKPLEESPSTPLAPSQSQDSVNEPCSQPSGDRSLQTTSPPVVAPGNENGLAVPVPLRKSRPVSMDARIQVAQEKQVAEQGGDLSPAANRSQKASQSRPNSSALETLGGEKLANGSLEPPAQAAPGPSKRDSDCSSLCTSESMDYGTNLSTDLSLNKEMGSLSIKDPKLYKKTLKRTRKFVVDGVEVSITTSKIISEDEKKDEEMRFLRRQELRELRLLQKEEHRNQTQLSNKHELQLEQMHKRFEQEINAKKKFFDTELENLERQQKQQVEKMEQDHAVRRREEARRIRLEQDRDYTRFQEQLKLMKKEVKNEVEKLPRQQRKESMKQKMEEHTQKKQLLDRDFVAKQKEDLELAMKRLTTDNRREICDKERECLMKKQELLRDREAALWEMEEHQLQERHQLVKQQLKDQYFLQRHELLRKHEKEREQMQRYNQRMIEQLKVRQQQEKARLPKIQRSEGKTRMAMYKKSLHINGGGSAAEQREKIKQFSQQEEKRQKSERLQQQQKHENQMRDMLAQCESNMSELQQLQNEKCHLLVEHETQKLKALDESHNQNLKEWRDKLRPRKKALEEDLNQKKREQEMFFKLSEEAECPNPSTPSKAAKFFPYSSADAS
T8 sequence (Q7KZI7 1-725 isoform Q7KZI7-4): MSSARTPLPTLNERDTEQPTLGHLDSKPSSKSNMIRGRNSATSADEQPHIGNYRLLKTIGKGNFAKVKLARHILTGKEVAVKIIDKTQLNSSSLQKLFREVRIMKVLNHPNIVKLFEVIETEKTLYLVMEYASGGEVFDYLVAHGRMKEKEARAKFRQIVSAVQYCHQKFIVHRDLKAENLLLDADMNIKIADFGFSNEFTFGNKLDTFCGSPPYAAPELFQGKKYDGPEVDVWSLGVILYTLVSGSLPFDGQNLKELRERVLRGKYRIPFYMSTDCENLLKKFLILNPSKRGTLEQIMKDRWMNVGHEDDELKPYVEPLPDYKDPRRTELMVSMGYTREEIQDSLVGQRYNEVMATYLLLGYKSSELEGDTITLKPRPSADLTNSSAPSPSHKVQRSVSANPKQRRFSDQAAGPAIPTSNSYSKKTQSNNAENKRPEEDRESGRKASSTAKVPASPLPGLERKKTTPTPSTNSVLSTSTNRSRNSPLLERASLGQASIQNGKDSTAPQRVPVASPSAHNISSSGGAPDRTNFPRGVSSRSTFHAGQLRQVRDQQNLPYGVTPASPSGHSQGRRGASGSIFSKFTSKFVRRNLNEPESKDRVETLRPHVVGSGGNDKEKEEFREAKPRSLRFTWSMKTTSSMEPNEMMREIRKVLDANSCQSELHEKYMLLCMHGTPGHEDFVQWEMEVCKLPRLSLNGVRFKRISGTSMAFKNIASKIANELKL
T7 sequence (P11362 22-822): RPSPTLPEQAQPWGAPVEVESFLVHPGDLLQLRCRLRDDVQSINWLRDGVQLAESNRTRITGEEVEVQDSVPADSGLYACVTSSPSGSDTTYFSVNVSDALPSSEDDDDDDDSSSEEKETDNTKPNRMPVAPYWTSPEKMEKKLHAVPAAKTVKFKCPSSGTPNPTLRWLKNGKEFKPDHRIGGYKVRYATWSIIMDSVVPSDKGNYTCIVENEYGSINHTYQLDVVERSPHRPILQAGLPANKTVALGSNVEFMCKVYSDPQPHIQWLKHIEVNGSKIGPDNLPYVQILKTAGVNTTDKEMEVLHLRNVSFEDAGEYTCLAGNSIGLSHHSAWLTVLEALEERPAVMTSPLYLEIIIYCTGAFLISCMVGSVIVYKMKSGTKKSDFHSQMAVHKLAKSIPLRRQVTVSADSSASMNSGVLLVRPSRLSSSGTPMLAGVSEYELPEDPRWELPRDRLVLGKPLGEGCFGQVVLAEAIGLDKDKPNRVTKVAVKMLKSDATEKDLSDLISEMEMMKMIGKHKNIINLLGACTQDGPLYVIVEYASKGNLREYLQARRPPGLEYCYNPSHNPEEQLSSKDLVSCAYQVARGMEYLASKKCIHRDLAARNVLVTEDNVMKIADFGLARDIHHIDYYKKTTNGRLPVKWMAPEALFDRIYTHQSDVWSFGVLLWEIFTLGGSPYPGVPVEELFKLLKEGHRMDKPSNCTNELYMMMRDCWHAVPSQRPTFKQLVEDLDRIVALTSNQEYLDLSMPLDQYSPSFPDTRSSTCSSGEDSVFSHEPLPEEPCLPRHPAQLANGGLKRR
T3 sequence (P53667 whole entry): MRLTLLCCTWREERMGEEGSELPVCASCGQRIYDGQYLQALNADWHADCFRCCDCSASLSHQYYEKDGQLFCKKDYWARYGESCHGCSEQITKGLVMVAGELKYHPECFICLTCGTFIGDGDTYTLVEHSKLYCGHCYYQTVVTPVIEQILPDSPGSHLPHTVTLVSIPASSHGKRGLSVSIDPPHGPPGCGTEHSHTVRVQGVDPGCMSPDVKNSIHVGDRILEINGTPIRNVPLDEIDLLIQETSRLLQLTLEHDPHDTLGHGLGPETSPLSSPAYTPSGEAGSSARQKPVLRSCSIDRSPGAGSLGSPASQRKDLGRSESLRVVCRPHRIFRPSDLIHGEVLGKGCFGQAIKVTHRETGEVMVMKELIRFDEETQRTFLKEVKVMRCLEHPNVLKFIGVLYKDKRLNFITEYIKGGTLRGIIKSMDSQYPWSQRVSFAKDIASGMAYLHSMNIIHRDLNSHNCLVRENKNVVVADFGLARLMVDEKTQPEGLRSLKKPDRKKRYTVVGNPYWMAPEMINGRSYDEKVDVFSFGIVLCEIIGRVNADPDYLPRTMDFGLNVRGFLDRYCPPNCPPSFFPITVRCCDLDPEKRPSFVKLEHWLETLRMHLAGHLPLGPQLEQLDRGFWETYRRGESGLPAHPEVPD
T2 sequence (Q16539 whole entry): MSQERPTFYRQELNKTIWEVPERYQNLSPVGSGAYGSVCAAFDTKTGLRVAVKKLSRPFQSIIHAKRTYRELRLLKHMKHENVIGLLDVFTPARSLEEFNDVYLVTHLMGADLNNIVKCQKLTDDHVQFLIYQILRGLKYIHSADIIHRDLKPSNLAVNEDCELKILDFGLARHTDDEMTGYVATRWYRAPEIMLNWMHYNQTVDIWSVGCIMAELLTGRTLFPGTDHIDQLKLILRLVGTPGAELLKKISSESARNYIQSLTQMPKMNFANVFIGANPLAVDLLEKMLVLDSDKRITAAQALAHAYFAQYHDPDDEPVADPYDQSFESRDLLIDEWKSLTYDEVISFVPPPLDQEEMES

Compound	toxicity effect on BFTC905 cells [1]	toxicity effect on RKO cells [2]	viability at 10 µM (A549 cell line)	viability at 20 µM (A549 cell line)	viability at 40 µM (A549 cell line)	viability at 60 µM (A549 cell line)	viability at 80 µM (A549 cell line)	other results
COC(=O)CCC(=O)N1CCN(CCCOc2cc3c(Nc4ccc(F)c(Cl)c4)ncnc3cc2OC)CC1 [Analogue-1, methyl 4-(4-(3-(4-(3-chloro-4-fluorophenylamino)-7-methoxyquinazolin-6-yloxy)propyl)piperazin-1-yl)-4-oxobutanoate]	more effective on cell death of RKO cells and BFTC905 cells than Iressa	more effective on cell death of RKO cells and BFTC905 cells than Iressa	89.1%	85.6%	75.9%	74.4%	75.9%	
COc1cc2ncnc(Nc3ccc(F)c(Cl)c3)c2cc1OCCCN1CCN(C(=O)CCC(=O)O)CC1 [Analogue-2, 4-(4-(3-(4-(3-chloro-4-fluorophenylamino)-7-methoxyquinazolin-6-yloxy)propyl)piperazin-1-yl)-4-oxobutanoic acid]	minor toxicity effect on BFTC905 cells	no toxicity effect on RKO cells						
CCCCCCCCCCCCCCCCCOC(=O)CCC(=O)N1CCN(CCCOc2cc3c(Nc4ccc(F)c(Cl)c4)ncnc3cc2OC)CC1 [Analogue-23, heptadecyl 4-(4-(3-(4-(3-chloro-4-fluorophenylamino)-7-methoxyquinazolin-6-yloxy)propyl)piperazin-1-yl)-4-oxobutanoate]			95.7%	97.2%	85.2%	84.1%	83.2%	
CCCCCCCOC(=O)CCC(=O)N1CCN(CCCOc2cc3c(Nc4ccc(F)c(Cl)c4)ncnc3cc2OC)CC1 [Analogue-13, heptyl 4-(4-(3-(4-(3-chloro-4-fluorophenylamino)-7-methoxyquinazolin-6-yloxy)propyl)piperazin-1-yl)-4-oxobutanoate]			89.1%	79.9%	59.1%	35.7%	27.2%	
CCCCCCCCCCCCCCCCCCCCOC(=O)CCC(=O)N1CCN(CCCOc2cc3c(Nc4ccc(F)c(Cl)c4)ncnc3cc2OC)CC1 [Analogue-26, icosyl 4-(4-(3-(4-(3-chloro-4-fluorophenylamino)-7-methoxyquinazolin-6-yloxy)propyl)piperazin-1-yl)-4-oxobutanoate]			94%	90.8%	87.1%	86.9%	85.2%	
COc1cc2ncnc(Nc3ccc(F)c(Cl)c3)c2cc1OCCCN1CCOCC1 [Iressa, Gefitinib, reference compound]			86.7%	82.1%	74.3%	64.6%	60.8%	cell growth of A549 cells (A549 cells [3]): inhibit cell growth of A549 cells; cleaved form of PARP (PARP): did not induce any significant change of caspase 3 and PARP; remaining activity at 10 µM [4]: 30%; average of total apoptosis (A549 cells [5]): around 19.6%; active form of caspase 3 (caspase 3): did not induce any significant change of caspase 3 and PARP; remaining activity at 10 µM [6]: 20%; remaining activity at 10 µM [7]: 76%; remaining activity at 10 µM [8]: 19%; remaining activity at 10 µM [9]: 92%; viability at 24 h [10]: > 30%; remaining activity at 10 µM [11]: 84%; remaining activity at 10 µM [12]: 27%; survivin protein expression (survivin [13]): significantly inhibited surviving protein expression; remaining activity at 10 µM (MARK2 (PAR-1Ba)): 86%; survivin gene expression (survivin [14]): no significant change; remaining activity at 10 µM [15]: 9%; average percentage of G1 fractions (A549 cells [16]): 76.1%
